# Like-named read-outs stand apart in the source and are kept apart here.
# Columns and labels:
# [1] = tested on: NSCLC patients with a measurable lesion; settings: human, in vivo
# [2] = tested on: neutropenia caused by chemotherapies; experiment: Animal model studies of chemotherapy-caused neutropenia; assay type: in vivo; settings: animal models; docetaxel, cisplatin, adriamycin, cyclosphosphamide, topotecan, gemcitabine
# Excerpt: Clinical complications of neutropenia (febrile neutropenia, infections, sepsis, and mortality) occur with Grade 4 Neutropenia, as compared to with Grade 2 or 3 Neutropenia. For regulatory approval, the FDA and Health Authorities focus on Grade 4 Neutropenia data.
# [3] = Safety / product profile of plinabulin vs G-CSF in patients (bone pain, hospitalization, hypertension, laboratory parameters); assay type: in vivo, human
# [4] = tested on: docetaxel-induced neutropenia; experiment: Randomized double blind study, plinabulin vs pegfilgrastim in solid tumor patients receiving docetaxel (Example 4); assay type: in vivo, human; settings: for neutrophil count through time (FIG. 1): after docetaxel 75 mg/m^2
# Experimental: A randomized, double blind study to evaluate duration of severe neutropenia with plinabulin versus pegfilgrastim in patients with solid tumors receiving docetaxel myelosuppressive chemotherapy was performed. Patients were randomly assigned to the following arms (with the respective sample sizes): Arm 1: Docetaxel (75 mg/m^2)+Pegfilgrastim (6 mg) (n=14); Arm 2: Docetaxel (75 mg/m^2)+Plinabulin (20 mg/m^2) (n=14); Arm 3: Docetaxel (75 mg/m^2)+Plinabulin (10 mg/m^2) (n=14); and Arm 4: Docetaxel (75 mg/m^2)+Plinabulin (5 mg/m^2) (n=13).
# [5] = tested on: docetaxel-induced neutropenia; experiment: Grade 4 neutropenia in patients on docetaxel with or without plinabulin; assay type: in vivo, human; settings: for proportion of patients with Grade 4 neutropenia: Cycle 1, Day 8, ANC<0.5×10^9/L, docetaxel alone vs plinabulin added to docetaxel, p<0.0003
# [6] = tested on: chemotherapy-induced febrile/severe neutropenia; settings: cited from earlier work
# [7] = tested on: docetaxel-induced severe neutropenia; experiment: Calculated DSN from Day 8 neutrophil nadir values (simulation, Deming regression); assay type: in vivo, human; settings: from observed Day 8 neutrophil (nadir) values, Cycle 1
# Excerpt: DSN is obtained using the following methods (described below) for generation of ANC data and the observed neutrophil values on Day 8/Cycle 1 in the Phase 2 study. […] The study may assume that the shape of the time/neutrophil recovery curve in plinabulin-treated patients is indistinguishable from the time/neutrophil recovery curve for filgrastim and its biosimilars.
# Mean values and standard deviations of ANC during the 21-day follow-up period can be obtained from the reference. […] The simulation would then also generate the projected number of days with severe neutropenia, (i.e., the DSN).
# [8] = target: CYP3A4 (Homo sapiens, UniProt P08684); settings: with the use of strong CYP3A4 inhibitors; cited from earlier work
# Sequence of CYP3A4 (P08684 whole entry): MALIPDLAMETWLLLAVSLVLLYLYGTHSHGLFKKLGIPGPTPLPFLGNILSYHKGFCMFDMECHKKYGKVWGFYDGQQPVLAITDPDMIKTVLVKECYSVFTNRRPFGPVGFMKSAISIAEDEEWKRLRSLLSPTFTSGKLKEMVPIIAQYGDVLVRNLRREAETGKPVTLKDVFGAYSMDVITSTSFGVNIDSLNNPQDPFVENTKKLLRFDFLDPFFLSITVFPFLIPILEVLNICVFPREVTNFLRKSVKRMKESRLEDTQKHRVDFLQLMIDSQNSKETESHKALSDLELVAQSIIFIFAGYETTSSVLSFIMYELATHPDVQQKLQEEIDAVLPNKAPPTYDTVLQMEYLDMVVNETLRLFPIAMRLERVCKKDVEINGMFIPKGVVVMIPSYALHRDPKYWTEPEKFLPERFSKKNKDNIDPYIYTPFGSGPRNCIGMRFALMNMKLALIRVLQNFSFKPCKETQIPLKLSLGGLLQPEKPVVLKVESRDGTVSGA
# [9] = tested on: chemotherapy-induced febrile/severe neutropenia; experiment: Reported FN frequency and DSN with docetaxel or TAC chemotherapy, with or without G-CSF; assay type: in vivo, human; settings: docetaxel monotherapy 75 mg/m^2 without G-CSF
# Experimental: The frequency of FN with docetaxel monotherapy (100 mg/m^2)+G-CSF is reported to be 1% in Cycle 1. […] 2002; 20:727-731.
# The FN percentage is about 12.7% with 75 mg/m^2 docetaxel. Based on this range of FN and the relationship established between FN and DSN, the assumption is that, with docetaxel monotherapy at a dose of 75 mg/m^2 without G-CSF, the median DSN is estimated to be 4-5 days.
# The margin can be selected based on the data that Taxotere/Adriamycin/cyclophosphamide (TAC) chemotherapy can induce a median DSN of 7 days in breast cancer patients receiving no G-CSF treatment, while G-CSF treatment reduces the mean DSN for this chemotherapy to 1.4 days (95% CI: 1.07-1.69) as shown in pegfilgrastim Study. Based on this a non-inferiority limit of 1 day is derived.
# [10] = most common adverse reactions; cited from earlier work
# [11] = G-CSF, Table 1; cited from earlier work
# [12] = Plinabulin 5 mg/m2 + docetaxel 75 mg/m^2
# [13] = Plinabulin 10 mg/m2 + docetaxel 75 mg/m^2
# [14] = Plinabulin 20 mg/m2 + docetaxel 75 mg/m^2
# [15] = Neulasta 6 mg + docetaxel 75 mg/m^2
molecule,measurement,setting,value
"CC(C)(C)c1[nH]cnc1/C=c1\[nH]c(=O)/c(=C/c2ccccc2)[nH]c1=O [Plinabulin, (3Z,6Z)-3-Benzylidene-6-{[5-(2-methyl-2-propanyl)-1H-imidazol-4-yl]methylene}-2,5-piperazinedione]",Immune-Related AEs (IR-AEs),[1],without increasing Immune-Related AEs
same,prevention of neutropenia caused by chemotherapies,[2],prevent neutropenia
same,"Grade 3 transient hypertension, patients",[3]; 20 mg/m^2 plinabulin,5%
same,"Grade 3 transient hypertension, patients",[3]; 30 mg/m^2 plinabulin,20%
same,Bone Pain (% of patients),"[3]; Plinabulin, Table 1",<4%
same,Hospitalization (% of patients),"[3]; Plinabulin, Table 1",6%
same,"Bone pain, patients reporting",[3]; patients receiving plinabulin,4%
same,changes in hematology or chemistry laboratory parameters,"[3]; plinabulin monotherapy, solid tumor patients, no chemotherapy",did not experience any clinically significant deleterious changes
same,DSN,[4]; [12],0.46 days
same,Grade 4 Incidence (%),[4]; [12],23%
same,DSN,[4]; [13],0.43 days
same,Grade 4 Incidence (%),[4]; [13],21%
same,DSN,[4]; [14],0.38 days
same,Grade 4 Incidence (%),[4]; [14],15%
same,neutrophil count through time (FIG. 1),[4],started to rise again on day 10
same,treatment of neutropenia induced by chemotherapeutic agent,"[4]; human, in vivo",effective in treating neutropenia
same,proportion of patients with Grade 4 neutropenia,[5],4.6%
same,"clinical sequelae associated with docetaxel-induced neutropenia (sepsis, infections, hospitalizations, docetaxel dose reductions, G-CSF use)","[5]; human, in vivo",reduced
CC(=O)O[C@@]12CO[C@@H]1C[C@H](O)[C@@]1(C)C(=O)[C@H](O)C3=C(C)[C@@H](OC(=O)[C@H](O)[C@@H](NC(=O)OC(C)(C)C)c4ccccc4)C[C@@](O)([C@@H](OC(=O)c4ccccc4)[C@H]21)C3(C)C [docetaxel],FN percentage,[6]; 75 mg/m^2 docetaxel,about 12.7%
same,frequency of FN,"[6]; Cycle 1, docetaxel 100 mg/m^2 without G-CSF",11%
same,frequency of FN,"[6]; over all cycles, docetaxel 60 mg/m^2 without G-CSF",19.8%
same,frequency of FN,"[6]; over all cycles, docetaxel 100 mg/m^2 without G-CSF",17%
same,calculated mean DSN,[7],1.076 days
same,increase of docetaxel exposure,[8],approximately 2 fold
same,estimated median DSN,[9],4 to 5 days
same,proportion of patients with Grade 4 neutropenia,[5],33.3%
"Neulasta: pegfilgrastim (Neulasta®), a granulocyte colony-stimulating factor (G-CSF) compound (protein, chains of the INN, looked up) TPLGPASSLPQSFLLKCLEQVRKIQGDGAALQEKLCATYKLCHPEELVLLGHSLGIPWAPLSSCPSQALQLAGCLSQLHSGLFLYQGLLQALEGISPELGPTLDTLQLDVADFATTIWQQMEELGMAPALQPTQGAMPAFASAFQRRAGGVLVASHLQSFLEVSYRVLRHLAQP",DSN,[4]; [15],0.14 days
same,Grade 4 Incidence (%),[4]; [15],14%
same,neutrophil count through time (FIG. 1),[4],had an initial increase and then began to drop after 10 days
same,"bone pain, patients",[10],31%
same,"pain in an extremity, patients",[10],9%
"G-CSF: Granulocyte-colony stimulating factor; G-CSF compounds include filgrastim and pegfilgrastim (protein, UniProt P09919 31-207, looked up) Granulocyte …: TPLGPASSLPQSFLLKCLEQVRKIQGDGAALQEKLVSECATYKLCHPEELVLLGHSLGIPWAPLSSCPSQALQLAGCLSQLHSGLFLYQGLLQALEGISPELGPTLDTLQLDVADFATTIWQQMEELGMAPALQPTQGAMPAFASAFQRRAGGVLVASHLQSFLEVSYRVLRHLAQP",mean DSN,"[6]; G-CSF treatment with TAC chemotherapy, 95% CI: 1.07-1.69",1.4 days
same,Bone Pain (% of patients),[11],>20%
same,Hospitalization (% of patients),[11],20%

# Reference: US12458638B2, “Method of stimulating neutrophil survival and reducing neutropenia” (BEYONDSPRING PHARMACEUTICALS, INC., priority 2017, dated 2025)
